Assay [1] has as its target T1, IKZF3 (Homo sapiens, UniProt Q96SW2+Q9UKT9).
T1 construct: endogenous in cells; host or cells: hPBMCs (Milecell Biotechnologies)
In words: Western-blot assay of substrate protein degradation in hPBMCs, IKZF3. The class given is cell-based. The conditions noted are these: 24 hours of compound treatment, compounds tested at 50 nM and 500 nM (concentration of the table not stated).

The subject of assay [2] is Jurkat. In words: Tumor cell proliferation inhibition (CellTiter-Meiluncell Luminescent Cell Viability Assay), Jurkat. Particulars: Homo sapiens, 96 h, read-out: inhibitory activity (IC50, nM) against tumor cells proliferation, Jurkat.
Assay [3] concerns the target T2, human Cereblon WT GST-tagged protein (Homo sapiens, UniProt Q96SW2).
T2 construct: purchased CISBIO 64BDCRBNPEH
In words: CRBN-binding affinity by HTRF (CEREBLON BINDING kit). Particulars: HTRF inhibitory activity, CEREBLON BINDING kit; read-out: HTRF IC50.

Assay [4] deals with T3, CK1α (Homo sapiens, UniProt P48729+Q96SW2).
T3 construct: endogenous in cells; host or cells: hPBMCs (Milecell Biotechnologies)
The experiment in a line: Western-blot assay of substrate protein degradation in hPBMCs, CK1α. The class given is cell-based. Particulars: 24 hours of compound treatment, compounds tested at 50 nM and 500 nM (concentration of the table not stated).

For assay [5], the target named is T4, GSPT1 (Homo sapiens, UniProt P15170+Q96SW2).
T4 construct: endogenous in cells; host or cells: hPBMCs (Milecell Biotechnologies)
The experiment in a line: Western-blot assay of substrate protein degradation in hPBMCs, GSPT1. The assay is classed as cell-based. The conditions noted are these: 24 hours of compound treatment, compounds tested at 50 nM and 500 nM (concentration of the table not stated).

Assay [6] relates to CCRF-CEM. The experiment in a line: Tumor cell proliferation inhibition (CellTiter-Meiluncell Luminescent Cell Viability Assay), CCRF-CEM. Particulars: Homo sapiens, 96 h, read-out: inhibitory activity (IC50, nM) against tumor cells proliferation, CCRF-CEM.
Assay [7] has as its system MM.1R. In words: Tumor cell proliferation inhibition (CellTiter-Meiluncell Luminescent Cell Viability Assay), MM.1R. The conditions noted are these: Homo sapiens, 96 h, read-out: inhibitory activity (IC50, nM) against tumor cells proliferation, MM.1R.
Assay [8] deals with Human acute T lymphocytic leukemia cells (Molt-4). The experiment in a line: Tumor cell proliferation inhibition (CellTiter-Meiluncell Luminescent Cell Viability Assay), Molt-4. The conditions noted are these: MOLT-4, 96 h, read-out: inhibitory activity (IC50, nM) against tumor cells proliferation, Molt 4.
Assay [9] addresses T5, IKZF1 (Homo sapiens, UniProt Q13422+Q96SW2).
T5 construct: endogenous in cells; host or cells: hPBMCs (Milecell Biotechnologies)
In words: Western-blot assay of substrate protein degradation in hPBMCs, IKZF1. The conditions noted are these: 24 hours of compound treatment, compounds tested at 50 nM and 500 nM (concentration of the table not stated). The class given is cell-based.

For assay [10], the target named is T6, IKZF2 (Homo sapiens, UniProt Q96SW2+Q9UKS7).
T6 construct: endogenous in cells; host or cells: hPBMCs (Milecell Biotechnologies)
The experiment in a line: Western-blot assay of substrate protein degradation in hPBMCs, IKZF2. The class given is cell-based. Particulars: 24 hours of compound treatment, compounds tested at 50 nM and 500 nM (concentration of the table not stated).

The subject of assay [11] is CAL-62. The experiment in a line: Tumor cell proliferation inhibition (CellTiter-Meiluncell Luminescent Cell Viability Assay), CAL-62. The conditions noted are these: Homo sapiens, CAL-62, 96 h, read-out: inhibitory activity (IC50, nM) against tumor cells proliferation, CAL-62.
Assay [12] addresses T7, WEE1 (Homo sapiens, UniProt P30291+Q96SW2).
T7 construct: endogenous in cells; host or cells: hPBMCs (Milecell Biotechnologies)
In words: Western-blot assay of substrate protein degradation in hPBMCs, WEE1. The class given is cell-based. Particulars: 24 hours of compound treatment, compounds tested at 50 nM and 500 nM (concentration of the table not stated).

Assay [13] relates to Vcap. The experiment in a line: Tumor cell proliferation inhibition (CellTiter-Meiluncell Luminescent Cell Viability Assay), Vcap. Particulars: Homo sapiens, 96 h, read-out: inhibitory activity (IC50, nM) against tumor cells proliferation, Vcap.
The subject of assay [14] is Human breast cancer cells (MDA-MB-231). The experiment in a line: Tumor cell proliferation inhibition (CellTiter-Meiluncell Luminescent Cell Viability Assay), MDA-MB-231. The conditions noted are these: MDA-MB-231, 96 h, read-out: inhibitory activity (IC50, nM) against tumor cells proliferation, MDA-MB-231.
The test system of assay [15] is NCI-H1975. The experiment in a line: Tumor cell proliferation inhibition (CellTiter-Meiluncell Luminescent Cell Viability Assay), NCI-H1975. Particulars: Homo sapiens, NCI-H1975, 96 h, read-out: inhibitory activity (IC50, nM) against tumor cells proliferation, H1975.

T4 sequence (P15170 whole entry): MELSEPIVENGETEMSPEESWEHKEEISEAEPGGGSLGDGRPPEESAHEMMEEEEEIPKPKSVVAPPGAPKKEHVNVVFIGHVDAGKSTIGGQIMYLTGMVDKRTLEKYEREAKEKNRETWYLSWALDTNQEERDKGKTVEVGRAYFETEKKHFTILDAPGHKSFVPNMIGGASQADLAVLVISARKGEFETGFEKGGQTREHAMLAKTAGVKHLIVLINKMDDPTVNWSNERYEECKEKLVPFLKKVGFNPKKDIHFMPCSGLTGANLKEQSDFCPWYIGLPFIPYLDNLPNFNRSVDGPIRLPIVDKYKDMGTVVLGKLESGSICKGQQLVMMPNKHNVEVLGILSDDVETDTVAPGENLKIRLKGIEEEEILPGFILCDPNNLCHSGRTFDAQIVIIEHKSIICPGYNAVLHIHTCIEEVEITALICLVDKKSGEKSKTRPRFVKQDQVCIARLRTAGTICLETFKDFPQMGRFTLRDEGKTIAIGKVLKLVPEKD
T4 sequence (Q96SW2 whole entry): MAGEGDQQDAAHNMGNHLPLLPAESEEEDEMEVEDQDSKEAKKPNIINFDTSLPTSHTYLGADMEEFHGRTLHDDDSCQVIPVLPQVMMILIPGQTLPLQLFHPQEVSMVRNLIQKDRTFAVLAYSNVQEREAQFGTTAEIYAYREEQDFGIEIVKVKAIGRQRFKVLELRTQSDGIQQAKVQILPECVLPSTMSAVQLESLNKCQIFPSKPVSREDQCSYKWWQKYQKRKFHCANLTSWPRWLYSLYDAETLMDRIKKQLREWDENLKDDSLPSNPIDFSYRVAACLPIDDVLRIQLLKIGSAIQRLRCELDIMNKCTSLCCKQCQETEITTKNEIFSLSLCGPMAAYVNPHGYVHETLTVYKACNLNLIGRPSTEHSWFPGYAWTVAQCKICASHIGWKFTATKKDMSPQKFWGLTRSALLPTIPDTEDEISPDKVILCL
T4 sequence (Q16531 whole entry partner): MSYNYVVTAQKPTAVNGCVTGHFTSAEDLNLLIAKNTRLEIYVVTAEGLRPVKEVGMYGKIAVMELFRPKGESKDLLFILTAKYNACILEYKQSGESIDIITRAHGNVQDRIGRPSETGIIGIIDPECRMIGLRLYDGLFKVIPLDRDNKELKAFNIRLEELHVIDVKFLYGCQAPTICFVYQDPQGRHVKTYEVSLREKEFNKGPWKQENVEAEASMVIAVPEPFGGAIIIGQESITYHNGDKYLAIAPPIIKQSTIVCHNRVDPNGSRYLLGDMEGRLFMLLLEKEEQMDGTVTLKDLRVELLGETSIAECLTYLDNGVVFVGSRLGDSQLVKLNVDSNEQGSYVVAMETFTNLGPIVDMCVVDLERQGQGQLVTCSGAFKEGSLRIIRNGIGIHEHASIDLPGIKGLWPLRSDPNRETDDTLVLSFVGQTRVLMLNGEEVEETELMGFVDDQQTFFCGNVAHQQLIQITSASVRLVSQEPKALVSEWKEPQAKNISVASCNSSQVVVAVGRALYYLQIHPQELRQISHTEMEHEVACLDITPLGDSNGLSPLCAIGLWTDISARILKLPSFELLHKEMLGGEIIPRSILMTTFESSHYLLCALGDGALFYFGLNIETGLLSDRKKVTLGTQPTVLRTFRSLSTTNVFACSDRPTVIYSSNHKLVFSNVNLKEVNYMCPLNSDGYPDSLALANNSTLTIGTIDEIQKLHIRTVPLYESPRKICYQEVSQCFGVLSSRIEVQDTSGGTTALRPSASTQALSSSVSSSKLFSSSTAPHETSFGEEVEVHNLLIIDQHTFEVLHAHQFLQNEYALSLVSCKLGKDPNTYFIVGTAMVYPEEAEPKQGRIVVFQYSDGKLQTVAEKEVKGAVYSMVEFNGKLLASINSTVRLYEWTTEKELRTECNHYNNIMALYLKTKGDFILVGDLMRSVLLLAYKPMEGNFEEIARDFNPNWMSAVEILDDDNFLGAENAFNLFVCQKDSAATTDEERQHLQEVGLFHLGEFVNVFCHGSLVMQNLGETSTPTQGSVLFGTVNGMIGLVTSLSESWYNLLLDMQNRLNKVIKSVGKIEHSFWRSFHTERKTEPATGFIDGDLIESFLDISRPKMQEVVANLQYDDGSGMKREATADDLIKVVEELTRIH
T2 sequence (Q96SW2 whole entry): as the sequence (Q96SW2 whole entry) above
T6 sequence (Q9UKS7 whole entry): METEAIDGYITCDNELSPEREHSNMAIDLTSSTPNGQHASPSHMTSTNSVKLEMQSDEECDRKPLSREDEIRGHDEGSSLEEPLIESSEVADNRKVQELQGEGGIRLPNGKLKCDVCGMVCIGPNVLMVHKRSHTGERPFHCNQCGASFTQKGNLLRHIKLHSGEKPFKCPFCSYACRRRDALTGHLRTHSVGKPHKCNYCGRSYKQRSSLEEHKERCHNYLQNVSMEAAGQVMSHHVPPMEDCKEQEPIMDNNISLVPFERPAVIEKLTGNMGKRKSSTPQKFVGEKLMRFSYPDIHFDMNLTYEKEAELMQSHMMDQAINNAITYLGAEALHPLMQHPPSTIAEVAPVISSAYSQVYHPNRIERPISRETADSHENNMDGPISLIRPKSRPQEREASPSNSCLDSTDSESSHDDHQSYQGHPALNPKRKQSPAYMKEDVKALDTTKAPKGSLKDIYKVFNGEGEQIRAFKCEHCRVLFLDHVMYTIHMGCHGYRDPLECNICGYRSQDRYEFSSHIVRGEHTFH
T6 sequence (Q96SW2 whole entry): as the sequence (Q96SW2 whole entry) above
T6 sequence (Q16531 whole entry partner): as the sequence (Q16531 whole entry partner) above
T7 sequence (P30291 whole entry): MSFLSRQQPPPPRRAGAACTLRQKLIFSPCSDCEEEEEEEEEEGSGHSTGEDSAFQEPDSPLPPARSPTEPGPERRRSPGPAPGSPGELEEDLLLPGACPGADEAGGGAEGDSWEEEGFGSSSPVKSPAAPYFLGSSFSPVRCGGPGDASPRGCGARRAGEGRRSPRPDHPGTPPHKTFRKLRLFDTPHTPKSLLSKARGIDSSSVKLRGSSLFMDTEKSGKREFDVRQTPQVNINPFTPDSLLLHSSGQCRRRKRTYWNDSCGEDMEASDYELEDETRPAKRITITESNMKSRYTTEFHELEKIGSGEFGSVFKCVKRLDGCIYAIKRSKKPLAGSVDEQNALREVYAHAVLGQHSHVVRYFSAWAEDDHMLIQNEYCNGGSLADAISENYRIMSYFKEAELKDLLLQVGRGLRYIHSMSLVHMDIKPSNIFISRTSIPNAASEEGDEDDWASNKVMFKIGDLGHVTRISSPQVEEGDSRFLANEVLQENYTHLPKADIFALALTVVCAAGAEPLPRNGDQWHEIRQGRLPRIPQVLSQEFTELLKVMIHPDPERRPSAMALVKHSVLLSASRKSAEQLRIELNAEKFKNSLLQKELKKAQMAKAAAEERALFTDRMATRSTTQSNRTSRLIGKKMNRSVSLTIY
T7 sequence (Q96SW2 whole entry): as the sequence (Q96SW2 whole entry) above
T7 sequence (Q16531 whole entry partner): as the sequence (Q16531 whole entry partner) above
T1 sequence (Q9UKT9 whole entry): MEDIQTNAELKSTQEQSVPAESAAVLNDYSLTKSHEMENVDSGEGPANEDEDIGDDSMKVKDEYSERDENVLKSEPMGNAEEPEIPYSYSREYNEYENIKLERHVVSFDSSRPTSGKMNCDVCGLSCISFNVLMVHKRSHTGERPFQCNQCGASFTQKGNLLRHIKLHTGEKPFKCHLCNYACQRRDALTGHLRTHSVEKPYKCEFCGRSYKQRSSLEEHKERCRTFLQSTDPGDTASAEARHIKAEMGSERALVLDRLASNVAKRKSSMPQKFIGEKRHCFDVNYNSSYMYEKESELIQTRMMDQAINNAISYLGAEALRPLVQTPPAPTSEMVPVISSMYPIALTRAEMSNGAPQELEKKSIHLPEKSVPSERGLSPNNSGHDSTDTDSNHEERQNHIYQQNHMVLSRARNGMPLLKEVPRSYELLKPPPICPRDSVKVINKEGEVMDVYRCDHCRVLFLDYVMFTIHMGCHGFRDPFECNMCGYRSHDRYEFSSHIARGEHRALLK
T1 sequence (Q96SW2 whole entry): as the sequence (Q96SW2 whole entry) above
T1 sequence (Q16531 whole entry partner): as the sequence (Q16531 whole entry partner) above
T5 sequence (Q13422 whole entry): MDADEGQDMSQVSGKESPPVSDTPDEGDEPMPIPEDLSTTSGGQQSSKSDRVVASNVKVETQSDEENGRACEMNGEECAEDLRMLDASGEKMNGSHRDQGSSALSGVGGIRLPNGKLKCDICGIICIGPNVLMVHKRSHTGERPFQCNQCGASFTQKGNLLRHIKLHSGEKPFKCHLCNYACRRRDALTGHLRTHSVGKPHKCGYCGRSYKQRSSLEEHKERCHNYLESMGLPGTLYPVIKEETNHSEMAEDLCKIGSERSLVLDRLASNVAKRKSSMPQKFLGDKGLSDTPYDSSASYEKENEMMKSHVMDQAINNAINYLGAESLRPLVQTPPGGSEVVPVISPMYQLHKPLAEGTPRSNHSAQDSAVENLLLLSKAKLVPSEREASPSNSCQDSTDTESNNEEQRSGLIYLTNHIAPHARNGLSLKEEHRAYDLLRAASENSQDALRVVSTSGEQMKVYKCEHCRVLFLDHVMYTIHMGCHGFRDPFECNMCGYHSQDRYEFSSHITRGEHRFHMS
T5 sequence (Q96SW2 whole entry): as the sequence (Q96SW2 whole entry) above
T5 sequence (Q16531 whole entry partner): as the sequence (Q16531 whole entry partner) above

`O=C1CCC(N2Cc3cc(CN4CCC(c5ccc(F)cc5)CC4)ccc3C2=O)C(=O)N1` (stereo not drawn) [GT-04471, 3-(5-((4-(4-fluorophenyl)piperidin-1-yl)methyl)-1-oxoisoindolin-2-yl)piperidine-2,6-dione]: the “IKZF3 substrate protein remaining %” value in assay [1] is “A (0% ≤ substrate protein remaining % ≤ 80%)”. Also, the IC50 was in the range of 10 to 50 nM in [2]; 500 to 1000 nM in assay [3]; 10 to 50 nM in assay [6]; 50 to 100 nM in assay [7]; 10 to 50 nM in assay [8]; 100 to 500 nM in [11]. Besides, in assay [13], the IC50 is 100 to 500 nM. Also, the “CK1a substrate protein remaining %” value in assay [4] is reported as “B (80%< substrate protein remaining %≤ 100%)”. In addition, in assay [5], the “GSPT1 substrate protein remaining %” value is given as “A (0% ≤ substrate protein remaining % ≤ 80%)”. Besides, the “IKZF 1 substrate protein remaining %” value in [9] is recorded as “A (0% ≤ substrate protein remaining % ≤ 80%)”. Besides, the “IKZF2 substrate protein remaining %” value in assay [10] is “A (0% ≤ substrate protein remaining % ≤ 80%)”. Moreover, the “Weel substrate protein remaining %” value in assay [12] is given as “A (0% ≤ substrate protein remaining % ≤ 80%)”.

`COc1ccccc1N1CCN(Cc2ccc3c(c2)CN(C2CCC(=O)NC2=O)C3=O)CC1` (stereo not drawn) [GT-04490, 3-(5-((4-(2-methoxyphenyl)piperazin-1-yl)methyl)-1-oxoisoindolin-2-yl)piperidine-2,6-dione]: the “IKZF3 substrate protein remaining %” value in assay [1] was “B (80%< substrate protein remaining %≤ 100%)”. Also, the IC50 was in the range of 50 to 100 nM in assay [2]; 500 to 1000 nM in [3]; 50 to 100 nM in [6]; 100 to 500 nM in assay [7]; 100 to 500 nM in assay [8]; 500 to 1000 nM in assay [11]. In [13], the IC50 is 500 to 1000 nM. In assay [4], the “CK1a substrate protein remaining %” value is reported as “A (0% ≤ substrate protein remaining % ≤ 80%)”. For the same compound, in [5], the “GSPT1 substrate protein remaining %” value is on record as “A (0% ≤ substrate protein remaining % ≤ 80%)”. Moreover, the “IKZF 1 substrate protein remaining %” value in assay [9] is “B (80%< substrate protein remaining %≤ 100%)”. In addition, in assay [10], the “IKZF2 substrate protein remaining %” value was “A (0% ≤ substrate protein remaining % ≤ 80%)”. Moreover, the “Weel substrate protein remaining %” value in assay [12] is reported as “B (80%< substrate protein remaining %≤ 100%)”.

`O=C1CCC(N2Cc3cc(CN4CCN(c5cc(Cl)ccn5)CC4)ccc3C2=O)C(=O)N1` (stereo not drawn) [GT-04430, 3-(5-((4-(4-chloropyridin-2-yl)piperazin-1-yl)methyl)-1-oxoisoindolin-2-yl)piperidine-2,6-dione]: the “IKZF3 substrate protein remaining %” value in assay [1] was “A (0% ≤ substrate protein remaining % ≤ 80%)”. Further, the IC50 in assay [2] lay within 10 to 50 nM; in [3], 500 to 1000 nM; in assay [6], 10 to 50 nM; in assay [7], 50 to 100 nM; in assay [8], 10 to 50 nM; in assay [11] it was 50 to 100 nM. In assay [13], the IC50 fell in the range of 100 to 500 nM. The “CK1a substrate protein remaining %” value in [4] is “B (80%< substrate protein remaining %≤ 100%)”. In addition, the “GSPT1 substrate protein remaining %” value in assay [5] is given as “A (0% ≤ substrate protein remaining % ≤ 80%)”. Also, in assay [9], the “IKZF 1 substrate protein remaining %” value is recorded as “A (0% ≤ substrate protein remaining % ≤ 80%)”. Further, in assay [10], the “IKZF2 substrate protein remaining %” value is listed as “A (0% ≤ substrate protein remaining % ≤ 80%)”. Also, in assay [12], the “Weel substrate protein remaining %” value is “B (80%< substrate protein remaining %≤ 100%)”.

For `O=C1CCC(N2Cc3cc(CN4CCC(c5ccc(Br)cc5)CC4)ccc3C2=O)C(=O)N1` (stereo not drawn) [GT-04493, 3-(5-((4-(4-bromophenyl)piperidin-1-yl)methyl)-1-oxoisoindolin-2-yl)piperidine-2,6-dione], the “IKZF3 substrate protein remaining %” value in assay [1] is “B (80%< substrate protein remaining %≤ 100%)”. The IC50 fell in the range of 10 to 50 nM in assay [2]; 500 to 1000 nM in assay [3]; 10 to 50 nM in [6]; 10 to 50 nM in assay [7]; 10 to 50 nM in [11]; 100 to 500 nM in assay [13]. Besides, in assay [4], the “CK1a substrate protein remaining %” value is recorded as “A (0% ≤ substrate protein remaining % ≤ 80%)”. Also, in assay [5], the “GSPT1 substrate protein remaining %” value is recorded as “A (0% ≤ substrate protein remaining % ≤ 80%)”. Moreover, the “IKZF 1 substrate protein remaining %” value in [9] is “B (80%< substrate protein remaining %≤ 100%)”. Moreover, in assay [10], the “IKZF2 substrate protein remaining %” value was “A (0% ≤ substrate protein remaining % ≤ 80%)”. The “Weel substrate protein remaining %” value in assay [12] is “A (0% ≤ substrate protein remaining % ≤ 80%)”.

Turning to `O=C1CCC(N2Cc3cc(CN4CCN(c5cccc(F)c5F)CC4)ccc3C2=O)C(=O)N1` (stereo not drawn) [GT-04515, 3-(5-((4-(2,3-difluorophenyl)piperazin-1-yl)methyl)-1-oxoisoindolin-2-yl)piperidine-2,6-dione], the IC50 in assay [14] lay within 50 to 100 nM; in assay [2], 50 to 100 nM; in assay [15] it was 50 to 100 nM; in [3] it was 500 to 1000 nM; in assay [7], 5 to 10 nM; in [8], 5 to 10 nM. In addition, in [11], the IC50 was 10 to 50 nM. In addition, in assay [1], the “IKZF3 substrate protein remaining %” value is reported as “A (0% ≤ substrate protein remaining % ≤ 80%)”. For the same compound, the “CK1a substrate protein remaining %” value in assay [4] is reported as “A (0% ≤ substrate protein remaining % ≤ 80%)”. In addition, the “GSPT1 substrate protein remaining %” value in assay [5] was “A (0% ≤ substrate protein remaining % ≤ 80%)”. Besides, the “IKZF 1 substrate protein remaining %” value in [9] was “A (0% ≤ substrate protein remaining % ≤ 80%)”. Further, the “IKZF2 substrate protein remaining %” value in assay [10] is listed as “A (0% ≤ substrate protein remaining % ≤ 80%)”. For the same compound, the “Weel substrate protein remaining %” value in assay [12] was “A (0% ≤ substrate protein remaining % ≤ 80%)”.

Regarding `O=C1CCC(N2Cc3cc(CN4CC=C(c5cccc(Cl)c5Cl)CC4)ccc3C2=O)C(=O)N1` (stereo not drawn) [GT-04550, 3-(5-((4-(2,3-dichlorophenyl)-3,6-dihydropyridin-1(2H)-yl)methyl)-1-oxoisoindolin-2-yl)piperidine-2,6-dione], the IC50 in [14] is 1 to 5 nM; in [2], under 1 nM; in assay [15] it was 1 to 5 nM; in assay [3], under 500 nM; in [7], under 1 nM; in [8] it was under 1 nM. In addition, the IC50 in assay [11] is under 1 nM. Also, the “IKZF3 substrate protein remaining %” value in [1] was “A (0% ≤ substrate protein remaining % ≤ 80%)”. The “CK1a substrate protein remaining %” value in assay [4] is on record as “A (0% ≤ substrate protein remaining % ≤ 80%)”. The “GSPT1 substrate protein remaining %” value in assay [5] is given as “A (0% ≤ substrate protein remaining % ≤ 80%)”. For the same compound, in assay [9], the “IKZF 1 substrate protein remaining %” value is reported as “A (0% ≤ substrate protein remaining % ≤ 80%)”. Further, the “IKZF2 substrate protein remaining %” value in assay [10] is recorded as “A (0% ≤ substrate protein remaining % ≤ 80%)”. Also, the “Weel substrate protein remaining %” value in assay [12] is “A (0% ≤ substrate protein remaining % ≤ 80%)”.

`Cc1ccccc1N1CCN(Cc2ccc3c(c2)CN(C2CCC(=O)NC2=O)C3=O)CC1` (stereo not drawn) [GT-04461, 3-(1-oxo-5-((4-(o-tolyl)piperazin-1-yl)methyl)isoindolin-2-yl)piperidine-2,6-dione]: in [1], the “IKZF3 substrate protein remaining %” value is listed as “A (0% ≤ substrate protein remaining % ≤ 80%)”. In addition, the IC50 in [2] lay in the range of 10 to 50 nM; in assay [3] it was 1000 to 1500 nM; in assay [6] it was 10 to 50 nM; in [7], 10 to 50 nM; in assay [8], 10 to 50 nM; in assay [11] it was 50 to 100 nM. In assay [13], the IC50 was in the range of 100 to 500 nM. For the same compound, in [4], the “CK1a substrate protein remaining %” value is on record as “B (80%< substrate protein remaining %≤ 100%)”. The “GSPT1 substrate protein remaining %” value in assay [5] is listed as “A (0% ≤ substrate protein remaining % ≤ 80%)”. Moreover, in assay [9], the “IKZF 1 substrate protein remaining %” value was “A (0% ≤ substrate protein remaining % ≤ 80%)”. In assay [10], the “IKZF2 substrate protein remaining %” value is on record as “A (0% ≤ substrate protein remaining % ≤ 80%)”. Also, the “Weel substrate protein remaining %” value in assay [12] is reported as “A (0% ≤ substrate protein remaining % ≤ 80%)”.
